Source: patent US9216181B2 (Southwest Research Institute, priority 2011, dated 2015)
Where “and” joins values, the source holds several entries; their conditions need not be identical. Identical values can stand only once. Counter-ions that a name gives are not always drawn. Like-named read-outs stand apart in the source and are kept apart here.

Columns and labels:
BMP-2 [1] = test: BMP-2 fold change of JHU library compounds, confirmed by qPCR; assay type: cell-based, human; conditions: JHU library compounds; non-treated = 1.00
From the text: To further verify the technique, a 2T3 mouse pre-osteoblast cell line derived from calvaria courtesy of Dr. Steve Harris, UTHSCSA, was utilized to visually screen the compounds of the BIOMOL library and JHU libraries, purchased from John Hopkins University including 2387 compounds (solution in wells). Specifically, Murine 2T3 were thawed from one frozen cryovial and re-seeded into two T-75 tissue culture flasks grown in Alpha MEM with 10% FBS, Glutamine, and Pen/Strip antibiotics. Cells were incubated in a humidified 37° C. under 5% CO2 for 48 hours or when cells reached 80% confluence. After reaching confluency, the 2T3 were trypsinized and resuspended in pre-warm growth media to a cell density of 5×10^4 cells/mL. Approximately 100 uL of cell suspension was seeded to a 96 well plate to give a final 5,000 cells per well. Plate was incubated overnight at 37° C. and spent media was aspirated and replace with 100 uL of growth media with 5-10 uM of presumptive drug compounds. A set of controls were untreated and treated with 10 uM of Lovastatin to be used as a visual reference morphological screening.
Human mesenchymal stem cells (LONZA, Catalog PT2501) were maintained in Mesenchymal stem cells basal media (MSCBM CAT#PT-3238). Early passage cells were plated in triplicate at 2×10^4 cells/cm^2 using six well tissue culture plates and grown in humidified 5% CO2 at 37° C. for 24 hours. Spent media was replaced by assay media of drugs to be tested in same media as above at 10 μM final concentration. Untreated cells were used as the control group. […] RNA concentration and integrity was assessed by absorbance 260/280 and electrophoresis in 1% Agarose with formaldehyde loading dye. For TaqMan gene expression, cDNA was synthesized from 2 μg of total RNA using the High Capacity cDNA Reverse Transcription Kit (Applied Biosystems, Cat. 4368814). The resulting cDNA were diluted 1:100 for TaqMan and amplified by real-time quantitative PCR. […] A cocktail of universal master mix (Applied Biosystems, 4369016) were prepared individually for both set of primers which contained Taq Polymerase, dNTPs, and buffer. Template cDNA's were added separately to respective individual wells in triplicate samples. The PCR were performed on StepOne Plus Real Time System instrument (Applied Biosystems). The amplification program consisted of 1 cycle of 95° C. with 10 minute hold (hot start) followed by 50 cycles of 95° C. with 15 second annealing hold and 1 minute 60° C. specified acquisition hold. […] Change in gene expression was determined by the expression ΔΔCt relative method.
Included in the tables is the target or common medical use for each compounds.

BMP-2 [2] = test: Real time PCR of BMP-2 gene expression in human MSC (Cells-to-Ct); assay type: cell-based; conditions: BMP-2 mRNA, hMSC, 5-10 μM, 24 hours, vs untreated
Description: Early passage human mesenchymal stem cells (MSC) were thawed from one frozen cryo-vial and seeded into two T-75 tissue culture flasks and incubated at 37° C. for 48 hours in Alpha MEM with 10% FBS. After three days and one re-feeding, the cells were trypsinized and re-suspended in pre-warmed media at 5×10^4 cells/mL to provide 5,000 cells per well in a 96 well plate and incubated overnight at 37° C. in 5% CO2.
Each well was washed in cold PBS, lysed at room temperature for five minutes, and stop reagent added to each well to stop the lysis reaction. The final lysate was kept cold at 4° C. and used immediately as the RNA template for the reverse transcription cDNA synthesis following the TAQMAN GENE EXPRESSION CELLS TO CT KIT instructions.
The cDNA synthesis was prepared on a separate sterile 96-well PCR plate and performed on the Step One Plus Real Time PCR System instrument (Applied Biosystems) with the programming set at 37° C. for 60 minutes and an inactivation hold of 95° C. for five minutes. The final cDNA reaction was kept cold and used as the template for the TAQMAN GENE Real-Time PCR step following the recommended instructions for TAQMAN GENE EXPRESSION CELLS TO CT KIT assay. […] Template cDNA's were added separately to respective individual wells in replicate samples.
The PCR was performed on the STEPONEPLUS Real-Time System instrument (Applied Biosystems). The amplification program consisted of 1 cycle of 95° C. with 10 minute hold (hot start) and followed by 50 cycles of 95° C. with 15-second annealing hold and 1-minute 60° C. specified acquisition hold.

BMP2 = test: Quantitative PCR (TaqMan, ΔΔCt) of BMP2 in human mesenchymal stem cells; assay type: cell-based; conditions: BMP2 mRNA, hMSC, 10 μM, vs untreated, 18S reference; for fold induction at 10 µM: Homo sapiens, Mesenchymal stem cells, read-out: q-PCR Fold increase
Description: Human mesenchymal stem cells (LONZA, Catalog PT2501) were maintained in Mesenchymal stem cells basal media (MSCBM CAT#PT-3238). Early passage cells were plated in triplicate at 2×10^4 cells/cm^2 using six well tissue culture plates and grown in humidified 5% CO2 at 37° C. for 24 hours. Spent media was replaced by assay media of drugs to be tested in same media as above at 10 μM final concentration. Untreated cells were used as the control group. Total RNA were prepared using either TRI Reagent (Ambion, Cat. 9738), for subsequent TaqMan gene expression qPCR of BMP2. RNA concentration and integrity was assessed by absorbance 260/280 and electrophoresis in 1% Agarose with formaldehyde loading dye. For TaqMan gene expression, cDNA was synthesized from 2 μg of total RNA using the High Capacity cDNA Reverse Transcription Kit (Applied Biosystems, Cat. 4368814). The resulting cDNA were diluted 1:100 for TaqMan and amplified by real-time quantitative PCR. Gene-specific fluorescent labeled TaqMan primers for FAM-BMP2 (Applied Biosystems, Hs00154192.m1) and TaqMan reference VIC-18S ribosomal RNA (Applied Biosystems, 4310893E) were used to target gene of interest. A cocktail of universal master mix (Applied Biosystems, 4369016) were prepared individually for both set of primers which contained Taq Polymerase, dNTPs, and buffer. Template cDNA's were added separately to respective individual wells in triplicate samples. The PCR were performed on StepOne Plus Real Time System instrument (Applied Biosystems). The amplification program consisted of 1 cycle of 95° C. with 10 minute hold (hot start) followed by 50 cycles of 95° C. with 15 second annealing hold and 1 minute 60° C. specified acquisition hold. The Ct value of endogenous reference gene (i.e. 18 s) was used to control for input RNA and then used to normalize target gene (i.e. BMP2) tested from the same cDNA sample to calculate the Δ Ct, and then calibrated to an internal reference sample. Change in gene expression was determined by the expression ΔΔCt relative method.
18 compounds were confirmed positive by the more stringent qPCR techniques. […] Included in the tables is the target or common medical use for each compounds.

[3] = positive control compounds (Table 1)

| Compound | Fold change (BMP-2) (BMP-2 [1]) | also measured |
| --- | --- | --- |
| CC(=O)OCC(=O)[C@@]1(O)CC[C@H]2[C@@H]3C[C@H](C)C4=CC(=O)C=C[C@]4(C)[C@H]3[C@@H](O)C[C@@]21C [6alpha-METHYLPREDNISOLONE ACETATE] | 35.00 fold |  |
| CC[C@@]1(O)C(=O)OCc2c1cc1n(c2=O)Cc2cc3cc(O)ccc3nc2-1 [10-hydroxy-camptothecin] |  | RT PCR Fold increase (BMP-2 [2]; BIOMOL library (Table 2)): 30.0 fold; q-PCR Fold increase (BMP2; BIOMOL library (Table 2)): 3.9 fold |
| Nc1c2ccccc2nc2ccccc12 [Aminacrine (9-Aminoacridine)] | 5762.00 fold |  |
| COc1cc(NS(C)(=O)=O)ccc1Nc1c2ccccc2nc2ccccc12 [Amsacrine] | 85.00 fold |  |
| COc1ccc(C[C@H]2NC[C@H](O)[C@H]2OC(C)=O)cc1 [Anisomycin] | 670.00 fold and 387.00 fold |  |
| CN1CCc2cccc3c2[C@H]1Cc1ccc(O)c(O)c1-3 [Apomorphine r (−)] |  | RT PCR Fold increase (BMP-2 [2]; BIOMOL library (Table 2)): 4.6 fold; fold induction at 10 µM (BMP2; BIOMOL library (Table 2)): 7.3 |
| CC(=O)OC[C@H]1O[C@@H]([S-])[C@H](OC(C)=O)[C@@H](OC(C)=O)[C@@H]1OC(C)=O.CCP(CC)CC.[Au+] [Auranofin] |  | RT PCR Fold increase (BMP-2 [2]; BIOMOL library (Table 2)): 309.8 fold; q-PCR Fold increase (BMP2; BIOMOL library (Table 2)): 17.6 fold |
| CC(C)C[C@H](NC(=O)[C@H](Cc1ccccc1)NC(=O)c1cnccn1)B(O)O [Bortezomib] |  | RT PCR Fold increase (BMP-2 [2]; [3]): 15.4 fold; fold induction at 10 µM (BMP2; [3]): 2.4 |
| CC(=O)[O-].CC(=O)[O-].[Cd+2] [Cadmium Acetate] | 8.00 fold |  |
| C=C1CC[C@H](O)C/C1=C/C=C1\CCC[C@]2(C)[C@@H]([C@H](C)CCCC(C)(C)O)CC[C@@H]12 [Calcifediol] |  | RT PCR Fold increase (BMP-2 [2]; BIOMOL library (Table 2)): 6.0 fold; fold induction at 10 µM (BMP2; BIOMOL library (Table 2)): 3.4 |
| CC[C@@]1(O)C(=O)OCc2c1cc1n(c2=O)Cc2cc3ccccc3nc2-1 [Camptothecin] |  | RT PCR Fold increase (BMP-2 [2]; BIOMOL library (Table 2)): 29.0 fold; fold induction at 10 µM (BMP2; BIOMOL library (Table 2)): 4 |
| COCc1c(C(C)C)nc(C(C)C)c(/C=C/[C@@H](O)C[C@@H](O)CC(=O)O)c1-c1ccc(F)cc1 [Cerivastatin] |  | RT PCR Fold increase (BMP-2 [2]; [3]): 5.3 fold; fold induction at 10 µM (BMP2; [3]): 11.9 |
| CC(C)(C)CC(C)(C)c1ccc(O)c(Cc2ccc(Cl)cc2Cl)c1 [Clofoctol] | 11.00 fold |  |
| C[C@@H]1C[C@@H]([C@H](O)CC2CC(=O)NC(=O)C2)C(=O)[C@@H](C)C1 [Cycloheximide] | 34.00 fold |  |
| Oc1ccc(CCN2CCC(Nc3nc4ccccc4n3Cc3ccc(F)cc3)CC2)cc1 [Desmethyl astemizole] | 75.00 fold |  |
| COc1ccc(-c2cc(=O)c3c(O)cc(O[C@@H]4O[C@H](CO[C@@H]5O[C@@H](C)[C@H](O)[C@@H](O)[C@H]5O)[C@@H](O)[C@H](O)[C@H]4O)cc3o2)cc1O [Diosmin] | 9.00 fold |  |

| Compound | Fold change (BMP-2) (BMP-2 [1]) | also measured |
| --- | --- | --- |
| CC[C@H]1CN2CCc3cc(OC)c(OC)cc3[C@@H]2C[C@@H]1C[C@H]1NCCc2cc(OC)c(OC)cc21 [Emetine] | 220.00 fold |  |
| CC[C@@H](C(=O)[C@@H](C)[C@@H](O)[C@H](C)CCc1ccc(C)c(O)c1C(=O)[O-])[C@H]1O[C@](CC)([C@H]2CC[C@](O)(CC)[C@H](C)O2)C[C@@H]1C.[Na+] [Laslocid Sodium] | 4.00 fold |  |
| O=[N+]([O-])c1ccc(O)c2ncccc12 [Nitroxoline (8-hydroxy 5-nitroquinoline)] | 18.00 fold |  |
| O=P([O-])([O-])OC1C(OP(=O)([O-])[O-])C(OP(=O)([O-])[O-])C(OP(=O)([O-])[O-])C(OP(=O)([O-])[O-])C1OP(=O)([O-])[O-].[Na+].[Na+].[Na+].[Na+].[Na+].[Na+].[Na+].[Na+].[Na+].[Na+].[Na+].[Na+] (centres unmarked) [Phytic acid, dodecasodium salt hydrate] | 15.00 fold |  |
| Cc1cc(/C=C/c2ccc3cc(N(C)C)ccc3[n+]2C)c(C)n1-c1ccccc1 [Pyrvinium pamoate] | 398.00 fold |  |
| C=C(C)[C@H]1Cc2c(ccc3c2O[C@@H]2COc4cc(OC)c(OC)cc4[C@@H]2C3=O)O1 [ROTENONE] | 61.00 fold |  |
| C[CH2][Hg][S]c1ccccc1C(=O)[O-].[Na+] [THIMEROSAL] | 23.00 fold |  |
| CN(C)C(=S)SSC(=S)N(C)C [THIRAM] | 36.00 fold |  |
| C=C(NC(=O)C(=C)NC(=O)c1csc(C2=N[C@@H]3c4csc(n4)[C@H]4NC(=O)c5csc(n5)[C@H]([C@](C)(O)[C@@H](C)O)NC(=O)[C@H]5CSC(=N5)/C(=C/C)NC(=O)[C@H]([C@@H](C)O)NC(=O)c5csc(n5)[C@]3(CC2)NC(=O)[C@H](C)NC(=O)C(=C)NC(=O)[C@H](C)NC(=O)[C@H]([C@@H](C)CC)N[C@@H]2C=Cc3c([C@H](C)O)cc(nc3[C@H]2O)C(=O)O[C@@H]4C)n1)C(N)=O [Thiostrepton] | 5.00 fold |  |
| CC[C@@]1(O)C(=O)OCc2c1cc1n(c2=O)Cc2cc3c(CN(C)C)c(O)ccc3nc2-1 [Topotecan] | 365.00 fold |  |
| CCC1=C[C@@H]2CN(C1)Cc1c([nH]c3ccccc13)[C@@](C(=O)OC)(c1cc3c(cc1OC)N(C)[C@H]1[C@@](O)(C(=O)OC)[C@H](OC(C)=O)[C@]4(CC)C=CCN5CC[C@]31[C@@H]54)C2 [Vinorelbine tartrate] | 803.00 fold |  |
| Acriflavine hydrochloride | 1491.00 fold |  |
| Brilliant Blue | 111.00 fold |  |
| Proflavine hemisulfate salt hydrate | 177.00 fold |  |
| Verteporfin | 6.00 fold |  |
